One molecule from US11352350B2, “IRAK degraders and uses thereof” (Kymera Therapeutics, Inc., priority 2018, dated 2022) can be followed below.

The assay concerns Wistar Strain rats. As to the kind of experiment: MSU induced gouty arthritis (knee inflammation) in rats. It counts as in vivo. To be noted: prophylactic treatment, MSU-induced knee inflammation rat model. Here is the method: The anti-inflammatory efficacy and pain reduction for prophylactic treatment in an MSU-induced knee inflammation rat model of human gout was evaluated. See Kou, Y-Y et al., Evid-Based Compl. Alt. (doi: http://dx.doi.org/10.1155/2015/527019).
Preparation of MSU crystals: 4 g uric acid is dissolved in 800 ml 0.03N NaOH and heated to 60° C. NaOH is added as required to maintain pH 8.9. The solution is stored overnight at 4-8° C. Crystals are filtered, washed and dried. Crystals are suspended in sterile saline just prior to use.
Efficacy Study: Receive and quarantine 70 Wistar Strain rats (male, 250-300 g). Following quarantine, rats are accepted for the Study if no signs of clinical distress are noted during the 3-day quarantine period. […] The rat weights are recorded. […] Baseline readings are taken on DAY −3. Baseline knee diameters are measured by digital caliper. Baseline responses to mechanical allodynia, as measured by von Frey fibers, are recorded. […]
DAY 1: Rats are weighed and dosed as in Table 14. One hour after dosing, mechanical allodynia and knee diameters are measured and recorded.
DAY 2: Rats are weighed and dosed as in Table 14 One hour after dosing, mechanical allodynia and knee diameters are measured and recorded. […]
Results are tabulated, graphed and statistically analyzed for anti-inflammatory efficacy and pain reduction.

In the case of `CN(C[C@H]1CC[C@H](n2cc(NC(=O)c3coc(-c4ccnc(NCC5CC5)c4)n3)c(C(F)F)n2)CC1)C1CCN(Cc2cccc3c2n(C)c(=O)n3C2CCC(=O)NC2=O)CC1` (some centres unmarked) [I-75, 2-(2-((cyclopropylmethyl)amino)pyridin-4-yl)-N-(3-(difluoromethyl)-1-((1r,4r)-4-(((1-((1-(2,6-dioxopiperidin-3-yl)-3-methyl-2-oxo-2,3-dihydro-1H-benzo[d]imidazol-4-yl)methyl)piperidin-4-yl)(methyl)amino)methyl)cyclohexyl)-1H-pyrazol-4-yl)oxazole-4-carboxamide], where the note is “FIG. 17 A”, the knee joint swelling result is listed as “decreasing knee joint swelling”. The pain sensitivity entry (FIG. 17 B) is listed as “analgesic effect”.
